Results as given in ChEMBL document CHEMBL5331043, “A comprehensive review on acridone based derivatives as future anti-cancer agents and their structure activity relationships” (Eur J Med Chem, 2022).
≈ marks a conversion by molar mass, not a printed value.

Key:
[1] = system: HL-60; assay: Cytotoxicity against human HL-60 cells assessed as cell growth inhibition incubated for 72 hrs by tryphan blue staining based analysis; assay type: functional; conditions: HL-60, 72 h
[2] = system: CCRF-CEM; assay: Cytotoxicity against human CCRF-CEM cells assessed as cell growth inhibition; assay type: functional, cell-based
[3] = system: PC-3; assay: Antiproliferative activity against human PC-3 cells assessed as reduction in cell viability measured after 24 hrs by MTT assay; assay type: functional, cell-based; conditions: PC-3, 24 h
[4] = system: MCF7; assay: Cytotoxicity against human wild type MCF7 cells; assay type: functional, cell-based
[5] = Cytotoxicity against human MCF7/Mitox cells; assay type: functional, cell-based
[6] = system: MCF7-DOX; assay: Cytotoxicity against human MCF7-DOX cells; assay type: functional, cell-based
[7] = system: P388; assay: Cytotoxicity against mouse P388 cells; assay type: functional, cell-based
[8] = Cytotoxicity against human KB-ChR-8-5 cells assessed as reduction in cell growth incubated for 7 days in presence of vinblastine; assay type: functional, cell-based; conditions: KB-ChR-8-5, 168 h
[9] = system: MCF7; assay: Cytotoxicity against human MCF7 cells assessed as reduction in cell growth incubated for 72 hrs by SRB assay; assay type: functional, cell-based; conditions: MCF7, 72 h
[10] = Cytotoxicity against human SW1398 cells assessed as cell growth inhibition incubated for 72 hrs by SRB assay; assay type: functional, cell-based; conditions: SW1398, 72 h
[11] = system: WiDr; assay: Cytotoxicity against human WiDr cells assessed as cell growth inhibition incubated for 72 hrs by SRB assay; assay type: functional, cell-based
[12] = system: MCF7; assay: Cytotoxicity against human MCF7 cells assessed as cell growth inhibition incubated for 72 hrs by SRB assay; assay type: functional, cell-based; conditions: MCF7, 72 h
[13] = biological target: MAP/microtubule affinity-regulating kinase 4 (Homo sapiens, UniProt Q96L34); assay: Inhibition of human MARK4 ATPase activity using ATP as substrate incubated for 10 to 20 mins by Biomol green reagent based ELISA analysis
[14] = system: MCF7; assay: Antiproliferative activity against human MCF7 cells assessed as reduction in cell viability incubated for 48 hrs by MTT assay; assay type: functional, cell-based; conditions: MCF7, 48 h
[15] = system: Raji; assay: Antitumor activity against human Raji cells xenografted in ICR mouse assessed as reduction in tumor growth measured after 20 weeks; assay type: functional; design: scale not given: the % may be the effect or the level left
[16] = system: HepG2; assay: Cytotoxicity against human HepG2 cells assessed as reduction in cell viability incubated for 24 hrs by SRB assay; assay type: functional, cell-based; conditions: HepG2, 24 h
[17] = Cytotoxicity against human KKU-213C assessed as reduction in cell viability incubated for 24 hrs by SRB assay; assay type: functional, cell-based
[18] = system: MCF7; assay: Cytotoxicity against human MCF7 cells assessed as reduction in cell viability incubated for 48 hrs by alamar blue reagent based fluorescence assay; assay type: functional; conditions: MCF7, 48 h
[19] = system: HepG2; assay: Cytotoxicity against human HepG2 cells assessed as reduction in cell viability incubated for 48 hrs by alamar blue reagent based fluorescence assay; assay type: functional; conditions: HepG2, 48 h
[20] = system: MCF7; assay: Cytotoxicity against human MCF7 cells assessed as reduction in cell viability by SRB assay; assay type: functional, cell-based
[21] = system: MCF7; assay: Antitumor activity against human MCF7 cells xenografted in BALB/c nude mouse assessed as inhibition of tumor growth at 1 mg/kg, ip administered once daily for 21 days; assay type: functional; conditions: MCF7, 504 h, time 21 day, read-out: TGI
[22] = system: MCF7; assay: Cytotoxicity against human MCF7 cells assessed as reduction in cell viability measured after 72 hrs by MTT assay; assay type: functional, cell-based; conditions: MCF7, 72 h
[23] = system: A-431; assay: Cytotoxicity against human A-431 cells assessed as reduction in cell viability measured after 72 hrs by MTT assay; assay type: functional, cell-based; conditions: A-431, 72 h
[24] = system: HeLa; assay: Cytotoxicity against human HeLa cells assessed as reduction in cell viability measured after 72 hrs by MTT assay; assay type: functional, cell-based
[25] = system: MCF7; assay: Antiproliferative activity against human MCF7 cells assessed as reduction in cell viability incubated for 72 hrs by MTT assay; assay type: functional, cell-based; conditions: MCF7, 72 h
[26] = system: HepG2; assay: Antiproliferative activity against human HepG2 cells assessed as reduction in cell viability incubated for 72 hrs by MTT assay; assay type: functional, cell-based; conditions: HepG2, 72 h
[27] = system: PC-3; assay: Antiproliferative activity against human PC-3 cells assessed as reduction in cell viability incubated for 72 hrs by MTT assay; assay type: functional, cell-based; conditions: PC-3, 72 h
[28] = system: A549; assay: Antiproliferative activity against human A549 cells assessed as reduction in cell viability incubated for 72 hrs by MTT assay; assay type: functional, cell-based; conditions: A549, 72 h

Chain of MAP/microtubule affinity-regulating kinase 4 (Q96L34 whole entry): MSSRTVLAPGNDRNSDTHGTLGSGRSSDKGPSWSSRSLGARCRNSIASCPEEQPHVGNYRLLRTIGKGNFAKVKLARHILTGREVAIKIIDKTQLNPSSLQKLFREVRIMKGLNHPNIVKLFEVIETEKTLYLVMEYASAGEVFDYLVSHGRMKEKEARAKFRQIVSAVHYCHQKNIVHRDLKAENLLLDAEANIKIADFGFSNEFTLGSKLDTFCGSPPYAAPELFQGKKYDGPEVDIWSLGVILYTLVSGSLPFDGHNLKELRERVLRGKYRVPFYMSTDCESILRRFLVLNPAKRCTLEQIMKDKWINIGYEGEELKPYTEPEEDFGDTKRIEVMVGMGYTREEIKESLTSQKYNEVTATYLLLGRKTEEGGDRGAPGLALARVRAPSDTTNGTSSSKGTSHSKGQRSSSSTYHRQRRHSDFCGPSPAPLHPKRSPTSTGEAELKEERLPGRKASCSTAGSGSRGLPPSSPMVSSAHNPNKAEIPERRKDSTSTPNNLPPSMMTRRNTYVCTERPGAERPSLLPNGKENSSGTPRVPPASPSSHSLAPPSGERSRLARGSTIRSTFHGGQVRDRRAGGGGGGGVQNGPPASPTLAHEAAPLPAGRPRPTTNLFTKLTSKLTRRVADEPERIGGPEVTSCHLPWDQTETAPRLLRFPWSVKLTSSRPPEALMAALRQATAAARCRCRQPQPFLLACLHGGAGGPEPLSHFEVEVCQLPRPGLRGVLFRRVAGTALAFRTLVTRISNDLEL

For `CCN(CC)CCCCn1c2ccccc2c(=O)c2cc(F)ccc21`, the IC50 [1] was 0.51 µM.
`COc1cc(Cn2c3ccc(C(=O)CCN4CCCC4)cc3c(=O)c3cc(C(=O)NCCN4CCCC4)ccc32)cc(OC)c1` showed an IC50 [2] of 0.28 µM.
Work on `CCN(CC)CCNC(=O)c1ccc([N+](=O)[O-])c2[nH]c3ccccc3c(=O)c12` yielded an IC50 [3] of 2 µM.
For `O=C(c1cccc2c(=O)c3ccccc3[nH]c12)N1CCN(c2ccccc2)CC1`, the IC50 [4] was 4.5 µM, the IC50 [5] was 5.1 µM and the IC50 [6] was 6.5 µM.
`CC(=O)Nc1cc2c(=O)c3ccccc3n3c(=O)n(CCN(C)C)c(=O)c(c1)c23` gave an IC50 [7] of 0.86 µM.
In the case of `O=c1c2ccccc2n(CCCCN2CCN(CCO)CC2)c2ccc(Br)cc12`, the IC50 [8] is reported as 3.7 µM.
Compound `O=C(NC(=O)n1c(-c2ccccc2)nc2ccc(Br)cc2c1=O)c1cccc2c(=O)c3ccccc3[nH]c12` has an IC50 [9] of 2.9 µM, an IC50 [10] of 6 µM and an IC50 [11] of 9.8 µM. It also gave an IC50 [12] of 7.9 µM.
`COc1ccc(CNC(=O)Cn2c3ccccc3c(=O)c3cc(C)ccc32)cc1` gave an IC50 [13] of 1.8 µM and an IC50 [14] of 5.2 µM.
Work on `CC(C)=CCc1c(O)c(CC=C(C)C)c2c(c1O)c(=O)c1ccccc1n2C` yielded an Activity [15] of 48%.
In the case of `Cc1ccc2c(c1)c(=O)c1ccccc1n2CC(=O)NCc1ccccc1`, the IC50 [14] is reported as 5.2 µM.
Work on `COc1cc2[nH]c3c(O)cccc3c(=O)c2c(O)c1CC=C(C)C` yielded an IC50 [16] of 1.43 µg/mL (≈ 4.4 µM) and an IC50 [17] of 1.43 µg/mL (≈ 4.4 µM).
With `COc1cc(O)c(OC)c2c1c(=O)c1cccc(O)c1n2C` the IC50 [18] was 0.22 µM and the IC50 [19] was 0.22 µM.
With `COc1cccc2c(=O)c3ccccc3n(CCCCN3CCN(CCO)CC3)c12` the IC50 [8] was less than 6 µM.
`Cc1ccc2c(c1)c(=O)c1ccccc1n2CCCCN(CCO)CCO` gave an IC50 [20] of 6.1 µM.
With `Cc1cccc2c(=O)c3ccccc3n(CCCCN(CCO)CCO)c12` the IC50 [20] was 8.1 µM.
Work on `O=c1c2ccccc2[nH]c2ccccc12` [ACRIDONE] yielded an inhibition in vivo at 1 mg/kg [21] of 29%.
For `COc1cc2c(c(O)c1OC)c(=O)c1ccccc1n2C` [ARBORININE], the IC50 [22] was 1.84 µM, the IC50 [23] was 1.84 µM and the IC50 [24] was 1.84 µM.
Work on `COc1c(O)ccc2c(=O)c3c(O)cc4c(c3n(C)c12)C=CC(C)(C)O4` [CITRACRIDONE I] yielded an IC50 [25] of 12.5 µM, an IC50 [26] of 12.5 µM and an IC50 [27] of 12.5 µM. The IC50 [28] was 12.5 µM.
In the case of `COc1cc(O)c2c(=O)c3cccc(O)c3n(C)c2c1OC` [CITRUSININE-I], the IC50 [18] is reported as 0.22 µM and the IC50 [19] is reported as 0.22 µM.
